{
  "source": "patent US5994041A",
  "about": "“Process for buffering concentrated aqueous slurries” (priority 1998, dated 1999)",
  "note": "“Also recorded” adds a separate entry of the source.",
  "data": [
    {"experiment": "Electroacoustic sonic amplitude (ESA) as a function of pH", "format": "physicochemical", "settings": "FD1 slurries", "values": [
      {"smiles": "CC1=NN(c2ccc(C(=O)O)cc2)C(=O)C1=CC=Cc1c(C)nn(-c2ccc(C(=O)O)cc2)c1O", "note": "[FD1]", "intrinsic electrokinetic charge": "negative"}
    ]},
    {"experiment": "Electroacoustic sonic amplitude (ESA) as a function of pH", "format": "physicochemical", "settings": "FD1 versus FD2", "values": [
      {"smiles": "CC1=NN(c2ccc(C(=O)O)cc2)C(=O)C1=CC=Cc1c(C)nn(-c2ccc(C(=O)O)cc2)c1O", "note": "[FD1]", "lowest apparent pKa compared with FD2": "three pH units lower than that observed for FD2"}
    ]},
    {"experiment": "Electroacoustic sonic amplitude (ESA) as a function of pH", "format": "physicochemical", "settings": "above pH 5, FIG. 2", "values": [
      {"smiles": "CC1=NN(c2ccc(C(=O)O)cc2)C(=O)C1=CC=Cc1c(C)nn(-c2ccc(C(=O)O)cc2)c1O", "note": "[FD1]", "solubility of the dye with increasing pH": "marked increased solubility"}
    ]},
    {"experiment": "pH measurement of FD1 slurry on addition of buffering salt", "format": "physicochemical", "settings": "0.1 mole/L aqueous salt added to S1 slurry", "procedure": "Measurements of pH were made using a Corning combination pH electrode, calibrated with VWR buffers of pH 4.0 and pH 7.0, using a Radiometer Copenhagen PHM63 pH meter. Equilibrated measurements were taken at about 24° C. while stirring the solutions or slurries.\nAbout 97.0 g of the above described S1 slurry were placed in a 200 mL beaker upon a magnetic stirrer, and this slurry was moderately stirred using a magnetic stirring bar.\nAbout 93.9 g of the above described S1 slurry were placed in a 200 mL beaker upon a magnetic stirrer, and was moderately stirred. […] Aliquots of 0.1 mole/L aqueous sodium citrate were added, and pH was recorded after each addition.\nAbout 93.3 g of the above described S1 slurry were placed in a 200 mL beaker and stirred.", "values": [
      {"smiles": "CC(=O)O", "note": "[sodium acetate]", "effect of added buffering salt on slurry pH": "increases the slurry pH to a significant extent; also recorded: significantly increases the slurry pH"},
      {"smiles": "O=C([O-])c1ccccc1O.[Na+]", "note": "[sodium salicylate]", "effect of added buffering salt on slurry pH": "provides some pH control, but that the effect is less than that exhibited comparatively to the earlier examples"}
    ]},
    {"experiment": "not given", "settings": "Texter, Langmuir, 8, 291 (1992); cited from earlier work", "values": [
      {"smiles": "CC1=NN(c2ccc(C(=O)O)cc2)C(=O)C1=Cc1c(C)nn(-c2ccc(C(=O)O)cc2)c1O", "note": "[FD2]", "intrinsic electrokinetic charge": "negative"}
    ]},
    {"experiment": "not given", "settings": "slurry in the absence of surfactant; Texter, Langmuir, 8, 291 (1992); cited from earlier work", "values": [
      {"smiles": "CC1=NN(c2ccc(C(=O)O)cc2)C(=O)C1=Cc1c(C)nn(-c2ccc(C(=O)O)cc2)c1O", "note": "[FD2]", "S-shaped ESA transition over the pH interval": "4-6"}
    ]},
    {"experiment": "not given", "settings": "18° C.; cited from earlier work", "values": [
      {"smiles": "O=S(=O)(O)CCCNCCNCCCS(=O)(=O)O", "note": "[N,N'-Bis(3-sulphopropyl) ethylenediamine]", "pKa": 6.65}
    ]},
    {"experiment": "not given", "settings": "20° C.; cited from earlier work", "values": [
      {"smiles": "O=S(=O)(Nc1ccccc1)c1ccccc1", "note": "[C6 H5 --SO2 NH--C6 H5]", "pKa": 8.31},
      {"smiles": "Cc1ccc(NS(=O)(=O)c2ccccc2)cc1", "note": "[p-CH3 --C6 H4 --NHSO2 --C6 H5]", "pKa": 8.64},
      {"smiles": "COc1ccc(NS(=O)(=O)c2ccccc2)cc1", "note": "[p-CH3 O--C6 H4 --NHSO2 --C6 H5]", "pKa": 8.70},
      {"smiles": "O=C(O)c1ccc(S(=O)(=O)Nc2ccccc2)cc1", "note": "[p-CO2 H--C6 H4 --SO2 NH--C6 H5]", "pKa2": 7.75},
      {"smiles": "CC(=O)c1ccc(S(=O)(=O)Nc2ccccc2)cc1", "note": "[p-COCH3 --C6 H4 --SO2 NH--C6 H5]", "pKa": 6.94},
      {"smiles": "NS(=O)(=O)c1ccc(Cl)cc1", "note": "[p-Cl--C6 H4 --SO2 NH2]", "pKa": 9.77},
      {"smiles": "NS(=O)(=O)c1ccc([N+](=O)[O-])cc1", "note": "[p-NO2 --C6 H4 --SO2 NH2]", "pKa": 9.14}
    ]},
    {"experiment": "not given", "settings": "25° C.; cited from earlier work", "values": [
      {"smiles": "O=C1NCCS(=O)(=O)N1", "pKa": 4.51},
      {"smiles": "O=S1(=O)CCCN1", "pKa": 11.39},
      {"smiles": "O=S(=O)(Nc1c(Cl)cc(Cl)cc1Cl)C(F)(F)F", "note": "[2,4,6-trichloro-C6 H2 --NHSO2 CF3]", "pKa": 2.70},
      {"smiles": "O=S(=O)(Nc1ccc(Cl)cc1Cl)C(F)(F)F", "note": "[2,4-dichloro-C6 H3 --NHSO2 CF3]", "pKa": 2.96},
      {"smiles": "O=S(=O)(Nc1ccc(F)cc1F)C(F)(F)F", "note": "[2,4-difluoro-C6 H3 --NHSO2 CF3]", "pKa": 3.44},
      {"smiles": "O=S(=O)(Nc1ccc(Cl)cc1C(F)(F)F)C(F)(F)F", "note": "[2-CF3-4-Cl--C6 H3 --NHSO2 CF3]", "pKa": 2.59},
      {"smiles": "Cc1cc(Cl)ccc1NS(=O)(=O)C(F)(F)F", "note": "[2-CH3-4-Cl--C6 H3 --NHSO2 CF3]", "pKa": 3.90},
      {"smiles": "O=S(=O)(Nc1cccc(C(F)(F)F)c1)C(F)(F)F", "note": "[3,3-CF3 --C6 H4 --NHSO2 CF3]", "pKa": 3.70},
      {"smiles": "OCc1c[nH]cn1", "note": "[4-Hydroxylmethylimidazole]", "pKa": 6.39},
      {"smiles": "Cc1c[nH]cn1", "note": "[4-Methylimidazole]", "pKa": 7.67},
      {"smiles": "O=C1CC(=O)NC(=O)N1", "note": "[Barbituric acid]", "pKa": 4.04},
      {"smiles": "O=S(=O)(Nc1ccccc1)C(F)F", "note": "[C6 H5 --NHSO2 CF2 H]", "pKa": 6.19},
      {"smiles": "CC(=O)NS(=O)(=O)c1ccccc1", "note": "[C6 H5 --SO2 NHCOCH3]", "pKa": 4.72},
      {"smiles": "NNS(=O)(=O)c1ccccc1", "note": "[C6 H5 --SO2 NHNH2]", "pKa": 10.60},
      {"smiles": "O=S(=O)(NO)c1ccccc1", "note": "[C6 H5 --SO2 NHOH]", "pKa": 9.34},
      {"smiles": "CCS(=O)(=O)NC", "note": "[CH3 CH2 SO2 NHCH3]", "pKa": 11.84},
      {"smiles": "CNS(C)(=O)=O", "note": "[CH3 SO2 NHCH3]", "pKa": 11.79},
      {"smiles": "CS(=O)(=O)NS(C)(=O)=O", "note": "[CH3 SO2 NHSO2 CH3]", "pKa": 1.36},
      {"smiles": "CN(C)CCN", "note": "[Dimethylaminoethylamine]", "pKa2": 6.50},
      {"smiles": "O=P(O)(O)OC(CO)CO", "note": "[Glycerol-2-phosphoric acid]", "pKa2": 6.65},
      {"smiles": "O=C(O)CNC(=O)c1ccccc1", "note": "[Hippuric acid]", "pKa": 3.64},
      {"smiles": "NS(=O)(=O)C(F)F", "note": "[NH2 SO2 CF2 H]", "pKa": 8.06},
      {"smiles": "NS(=O)(=O)CF", "note": "[NH2 SO2 CFH2]", "pKa": 9.32},
      {"smiles": "O=C(O)c1ccccc1C(=O)O", "note": "[Phthalic acid]", "pKa2": 5.41},
      {"smiles": "c1ccc2ncccc2c1", "note": "[Quinoline]", "pKa": 5.00},
      {"smiles": "CCN(CC)CCN(CC)CC", "note": "[Tetraethylethylenediamine]", "pKa2": 5.89},
      {"smiles": "OCCN(CCO)CCN(CCO)CCO", "note": "[Tetrakis-(2-hydroxyethyl) ethylenediamine]", "pKa2": 4.5},
      {"smiles": "O=C(O)C(Cl)(Cl)Cl", "note": "[Trichloroacetic acid]", "pKa": 0.66},
      {"smiles": "O=c1[nH]c(=O)c2[nH]c(=O)[nH]c2[nH]1", "note": "[Uric acid]", "pKa": 5.83},
      {"smiles": "O=C1CS(=O)(=O)NC(=O)N1", "note": "[drawing 3]", "pKa": 2.88},
      {"smiles": "O=C1CS(=O)(=O)NC(=O)N1", "note": "[drawing 5]", "pKa": 11.00},
      {"smiles": "O=C(c1ccccc1)c1cccc(NS(=O)(=O)C(F)(F)F)c1", "note": "[m-C6 H5 CO--C6 H4 --NHSO2 CF3]", "pKa": 3.50},
      {"smiles": "O=C(c1ccccc1)c1cccc(NS(=O)(=O)CF)c1", "note": "[m-C6 H5 CO--C6 H4 --NHSO2 CFH2]", "pKa": 6.77},
      {"smiles": "CS(=O)(=O)Nc1cccc(C(=O)c2ccccc2)c1", "note": "[m-C6 H5 CO--C6 H4 --NHSO2 CH3]", "pKa": 8.19},
      {"smiles": "O=C(NO)c1cccc([N+](=O)[O-])c1", "note": "[m-NO2 --C6 H4 --CONHOH]", "pKa": 8.20},
      {"smiles": "NNc1cccc([N+](=O)[O-])c1", "note": "[m-NO2 --C6 H4 --NHNH2]", "pKa": 9.78},
      {"smiles": "CC(=O)NS(=O)(=O)Nc1cccc([N+](=O)[O-])c1", "note": "[m-NO2 --C6 H4 --NHSO2 NHCOCH3]", "pKa": 3.97},
      {"smiles": "NS(=O)(=O)c1cccc([N+](=O)[O-])c1", "note": "[m-NO2 --C6 H4 --SO2 NH2]", "pKa": 9.40},
      {"smiles": "O=[N+]([O-])c1cccc(S(=O)(=O)NO)c1", "note": "[m-NO2 --C6 H4 --SO2 NHOH]", "pKa": 8.60},
      {"smiles": "Nc1ccccc1C(=O)O", "note": "[o-Aminobenzoic acid]", "pKa": 2.15},
      {"smiles": "O=C(NO)c1ccc(Br)cc1", "note": "[p-Br--C6 H4 --CONHOH]", "pKa": 8.61},
      {"smiles": "NS(=O)(=O)c1ccc(Br)cc1", "note": "[p-Br--C6 H4 --SO2 NH2]", "pKa": 9.87},
      {"smiles": "CC(=O)NS(=O)(=O)c1ccc(Br)cc1", "note": "[p-Br--C6 H4 --SO2 NHCOCH3]", "pKa": 4.52},
      {"smiles": "NNS(=O)(=O)c1ccc(Br)cc1", "note": "[p-Br--C6 H4 --SO2 NHNH2]", "pKa": 10.36},
      {"smiles": "O=S(=O)(NO)c1ccc(Br)cc1", "note": "[p-Br--C6 H4 --SO2 NHOH]", "pKa": 9.08},
      {"smiles": "O=C(c1ccccc1)c1ccc(NS(=O)(=O)C(F)(F)F)cc1", "note": "[p-C6 H5 CO--C6 H4 --NHSO2 CF3]", "pKa": 3.22},
      {"smiles": "Cc1ccc(C(=O)NO)cc1", "note": "[p-CH3 --C6 H4 --CONHOH]", "pKa": 8.99},
      {"smiles": "CC(=O)NS(=O)(=O)c1ccc(C)cc1", "note": "[p-CH3 --C6 H4 --SO2 NHCOCH3]", "pKa": 4.92},
      {"smiles": "Cc1ccc(S(=O)(=O)NN)cc1", "note": "[p-CH3 --C6 H4 --SO2 NHNH2]", "pKa": 10.71},
      {"smiles": "Cc1ccc(S(=O)(=O)NO)cc1", "note": "[p-CH3 --C6 H4 --SO2 NHOH]", "pKa": 9.40},
      {"smiles": "CCc1ccc(NS(=O)(=O)C(F)(F)F)cc1", "note": "[p-CH3 CH2 --C6 H4 --NHSO2 CF3]", "pKa": 4.82},
      {"smiles": "CC(=O)c1ccc(NS(=O)(=O)C(F)(F)F)cc1", "note": "[p-CH3 CO--C6 H4 --NHSO2 CF3]", "pKa": 3.29},
      {"smiles": "COc1ccc(NS(=O)(=O)C(F)(F)F)cc1", "note": "[p-CH3 O--C6 H4 --NHSO2 CF3]", "pKa": 4.90},
      {"smiles": "Cc1ccc(N)cc1", "note": "[p-Toluidine]", "pKa": 5.30},
      {"smiles": "O=C(O)/C=C(\\CC(=O)O)C(=O)O", "note": "[trans-Aconitic acid]", "pKa1": 2.80, "pKa2": 4.46}
    ]}
  ]
}
